Data: patent US20260132165A1, “MODIFIED NUCLEOSIDE ANALOGUE AND USE THEREOF, AND NUCLEOSIDE ANALOGUE-CONTAINING DOUBLE-STRANDED OLIGONUCLEOTIDE AND USE THEREOF” (RIGERNA THERAPEUTICS (BEIJING) CO., LTD., priority 2023, published 2026)

Columns and labels:
target gene SOD1 [1] = experiment: Test Example 11: inhibitory activity at different administration doses on SOD1 in mouse adipose and heart tissues; format: in vivo, C57BL/6j mice; details: D14; for 0.5 mg/kg % Mean value of inhibition rate: tail vein injection 0.5 mg/kg; for 2 mg/kg % Mean value of inhibition rate: tail vein injection 2 mg/kg; for 5 mg/kg % Mean value of inhibition rate: tail vein injection 5 mg/kg; for dose dependency of inhibitory activity: 0.5, 2, 5 mg/kg tail vein
Procedure: (§1) RNA extraction: the above tissue samples were taken out from the RNAlater, and smashed for 60 s in Tissuelyser type II full-automatic tissue homogenizer, and total RNAs of various tissue samples were extracted using the full-automatic nucleic acid extraction instrument and the nucleic acid extraction kit from Zhejiang Hanwei Science and Technology Co. Ltd. according to methods described in instructions.
(§2) Reverse transcription reaction: 1 μg of the extracted total RNAs of the tissue samples were taken, and configured into 20 μL of reverse transcription system according to a method described in kit instructions by using a reverse transcription kit (Reverse Transcription System, A3500) from Promega Corporation and selecting Oligo (dT)15 reverse transcription primers, and the reverse transcription reaction was completed. After the reaction was ended, 80 μL of RNase-Free water was added into the reverse transcription system to provide cDNA solution for Real-time PCR detection.
(§3) Real-time PCR detection: 20 μL of Real-time PCR reaction system per PCR detection well was configured according to a method described in kit instructions using SYBR™ Select Master Mix (Catalog number: 4472908) reagent from ABI company. Each detection system contained 5 μL of cDNA template obtained from the above reverse transcription reaction, 10 μL of SYBR™ Select Master Mix, 0.5 μL of 10 μM upstream primers, 0.5 μL of 10 μM downstream primers, and 4 μL of RNase-Free H2O. The configured reaction system was subjected to Real-time PCR amplification on ABI StepOnePlus PCR instrument by a three-step method, wherein an amplification procedure was pre-denaturation at 95° C. for 10 min, then denaturation at 95° C. for 30 s, annealing at 60° C. for 30 s, and extension at 72° C. for 30 s; and processes of denaturation, annealing, and extension were repeated for 40 cycles. Gene expression differences were calculated by the ΔΔCt method after completion of the procedure.
(§4) In the real-time fluorescence quantitative PCR method, relative quantitative calculation of remaining expression level and inhibition rate of gene mRNA of interest in various test groups was performed by the ΔΔCt method, and the calculation method is as follows:
The present test example evaluated, by an evaluation method for inhibitory activity on a target gene in mice, the inhibitory activity of siRNA sequence RZ899090 with the sense strand with the NM073 conjugation at Position 4 at different administration doses on the target gene SOD1 of interest in mice.
6-8 Week-old C57BL/6j mice were randomly grouped by body weight, 5 per group, 4 groups in total. Mice were administered with the above siRNA conjugate by tail vein injection, wherein mice in one group were administered with the above siRNA conjugate at an administration dose of 5 mg/kg, mice in one group were administered with the above siRNA conjugate at an administration dose of 2 mg/kg, and one group was administered with the above siRNA conjugate at an administration dose of 0.5 mg/kg, all administration volumes being 150 μL. The remaining group acted as PBS control group and was administered with the same volume of siRNA conjugate-free PBS solution. The day of administration was recorded as D0, and the mice were sacrificed on D14 after administration. Paragonadal fat and heart tissues were respectively taken and stored in the RNAlater. RNA extraction, reverse transcription, and real-time fluorescence quantitative detection were performed on various tissues according to the above method, and gene expression differences were calculated by the above ΔΔCt method.

target gene SOD1 [2] = experiment: Test Example 10: inhibitory activity on SOD1 in mouse adipose and heart tissues by different routes of administration; format: in vivo, C57BL/6j mice; details: D14; for inhibitory activity by different routes of administration: subcutaneous vs tail vein injection, same dose 5 mg/kg; for Subcutaneous % Mean value of inhibition rate: subcutaneous administration 5 mg/kg; for Intravenous % Mean value of inhibition rate: tail vein injection 5 mg/kg
Procedure: as §1, §2, §3, §4
(§5) The present test example evaluated, by an evaluation method for inhibitory activity on a target gene in mice, the inhibitory activity of siRNA sequence RZ899090 with the sense strand with the NM073 conjugation at Position 4 on the target gene SOD1 of interest in mice.
6-8 Week-old C57BL/6j mice were randomly grouped by body weight, 5 per group, 4 groups in total. Mice in one of the groups were dosed with the above siRNA conjugate by tail vein injection, with an administration dose of 5 mg/kg, and an administration volume of 150 μL. One group was dosed with the above siRNA conjugate by subcutaneous administration, with an administration dose of 5 mg/kg, and an administration volume of 5 ml/kg. The other two groups were PBS control groups, and were respectively administered with the same volume of siRNA conjugate-free PBS solution by tail vein injection and subcutaneous administration. The day of administration was recorded as D0, and the mice were sacrificed on D14 after administration. Paragonadal fat and heart tissues were respectively taken and stored in the RNAlater. RNA extraction, reverse transcription, and real-time fluorescence quantitative detection were performed on various tissues according to the above method, and gene expression differences were calculated by the above ΔΔCt method.

target gene SOD1 [3] = experiment: Test Example 12: inhibitory activity of lipid conjugated siRNA sequence on SOD1 in mouse eyes (intravitreal administration); format: in vivo, C57BL/6J mice; details: D14
Procedure: as §1, §2, §3, §4
as §5, with “RZ899091” for “RZ899090”, “NM074” for “NM073”, “4 and siRNA reference sequence RX899121 without vector conjugation” for “4”
6-8 Week-old C57BL/6J mice were randomly grouped by body weight, 5 in each group and 3 groups in total. Mice in each group were administered with the above siRNA conjugate by intravitreal administration to right eyes of the mice, with an administration dose of 7.5 μg per mouse, and an administration volume of 2 μL. PBS control group was administered with the same volume of siRNA conjugate-free PBS solution. The day of administration was recorded as D0, and the mice were sacrificed at D14 after administration. Administration-side ocular retina, choroid, cornea, sclera and other tissues were respectively taken and stored in the RNAlater. RNA extraction, reverse transcription, and real-time fluorescence quantitative detection were performed on various tissues according to the above method, and gene expression differences were calculated by the above ΔΔCt method.

[4] = mouse adipose tissues (paragonadal fat)

Substance	0.5 mg/kg % Mean value of inhibition rate (target gene SOD1 [1]; [4]) [%]	2 mg/kg % Mean value of inhibition rate (target gene SOD1 [1]; [4]) [%]	5 mg/kg % Mean value of inhibition rate (target gene SOD1 [1]; [4]) [%]	dose dependency of inhibitory activity (target gene SOD1 [1]; mouse adipose tissues)	dose dependency of inhibitory activity (target gene SOD1 [1]; mouse heart tissues)	0.5 mg/kg % Mean value of inhibition rate (target gene SOD1 [1]; mouse heart tissues) [%]	2 mg/kg % Mean value of inhibition rate (target gene SOD1 [1]; mouse heart tissues) [%]	5 mg/kg % Mean value of inhibition rate (target gene SOD1 [1]; mouse heart tissues) [%]	inhibitory activity by different routes of administration (target gene SOD1 [2]; adipose tissues)	inhibitory activity by different routes of administration (target gene SOD1 [2]; heart)	Subcutaneous % Mean value of inhibition rate (target gene SOD1 [2]; [4]) [%]	Intravenous % Mean value of inhibition rate (target gene SOD1 [2]; [4]) [%]	Subcutaneous % Mean value of inhibition rate (target gene SOD1 [2]; mouse heart tissues) [%]	Intravenous % Mean value of inhibition rate (target gene SOD1 [2]; mouse heart tissues) [%]	Choroid % Mean value of inhibition rate (target gene SOD1 [3]; choroid, intravitreal, right eye, 7.5 μg per mouse) [%]	Cornea and sclera % Mean value of inhibition rate (target gene SOD1 [3]; cornea and sclera, intravitreal, right eye, 7.5 μg per mouse) [%]	Kidney % Mean value of inhibition rate (target gene SOD1 [3]; kidney, intravitreal, right eye, 7.5 μg per mouse) [%]	Liver % Mean value of inhibition rate (target gene SOD1 [3]; liver, intravitreal, right eye, 7.5 μg per mouse) [%]	inhibitory activity compared with the reference sequence RX899121 without vector (target gene SOD1 [3]; mouse retina and choroid, intravitreal 7.5 μg per mouse)	Retina % Mean value of inhibition rate (target gene SOD1 [3]; retina, intravitreal, right eye, 7.5 μg per mouse) [%]
RZ899090: siRNA sequence with the sense strand with the NM073 (C18) conjugation at Position 4; SEQ ID NO: 15 / 23 (sense UUUNAAUCCUCACUCUAAA; antisense UUUAGAGUGAGGAUUAAAAUG; NM073 (C18) conjugate at sense position 4; modified_base 1..2 OTHER; 2'-methoxy and 5'-thiophosphate modified nucleotides; modified_base 3 OTHER; 2'-methoxy modified nucleotide; modified_base 4 OTHER; n is the nucleotide analog NM073 as described in the disclosure.; modified_base 5..6 OTHER; 2'-methoxy modified nucleotides; modified_base 7..10 OTHER; 2'-fluoro modified nucleotides; modified_base 11..19 OTHER; modified_base 1 OTHER; 2'-methoxy and 5'-thiovinylphosphonate modified nucleotide; modified_base 2 OTHER; 2'-fluoro and 5'-thiophosphate modified nucleotide; modified_base 3..5 OTHER; …)	45.65	70.90	83.09	distinct dose dependency	distinct dose dependency	30.45	62.38	79.04	comparable inhibitory activity in the fat	comparable inhibitory activity in heart	77.05	80.33	73.71	76.57	–	–	–	–	–	–
RZ899091: siRNA sequence with the sense strand with the NM074 (C20) conjugation at Position 4; SEQ ID NO: 16 / 23 (sense UUUNAAUCCUCACUCUAAA; antisense UUUAGAGUGAGGAUUAAAAUG; NM074 (C20) conjugate at sense position 4; modified_base 1..2 OTHER; 2'-methoxy and 5'-thiophosphate modified nucleotides; modified_base 3 OTHER; 2'-methoxy modified nucleotide; modified_base 4 OTHER; n is the synthetic nucleotide analog NM074 as described in the disclosure.; modified_base 5..6 OTHER; 2'-methoxy modified nucleotides; modified_base 7..10 OTHER; 2'-fluoro modified nucleotides; modified_base 11..19 OTHER; 2'-methoxy modified ; modified_base 1 OTHER; 2'-methoxy and 5'-thiovinylphosphonate modified nucleotide; modified_base 2 OTHER; 2'-fluoro and 5'-thiophosphate modified …)	–	–	–	–	–	–	–	–	–	–	–	–	–	–	33.54	−2.05	6.51	−2.05	superior inhibitory activity	54.98
